What follows are compounds tested against Recombinant Human Poly(ADP-Ribose) Polymerase (PARP), PARP-1 (Homo sapiens (Human), UniProt P09874). Conditions: read-out: PARP-1 (Ki); Table 1; text calls the values EC50s.
Chain of Recombinant Human Poly(ADP-Ribose) Polymerase (PARP), PARP-1 (P09874 whole entry): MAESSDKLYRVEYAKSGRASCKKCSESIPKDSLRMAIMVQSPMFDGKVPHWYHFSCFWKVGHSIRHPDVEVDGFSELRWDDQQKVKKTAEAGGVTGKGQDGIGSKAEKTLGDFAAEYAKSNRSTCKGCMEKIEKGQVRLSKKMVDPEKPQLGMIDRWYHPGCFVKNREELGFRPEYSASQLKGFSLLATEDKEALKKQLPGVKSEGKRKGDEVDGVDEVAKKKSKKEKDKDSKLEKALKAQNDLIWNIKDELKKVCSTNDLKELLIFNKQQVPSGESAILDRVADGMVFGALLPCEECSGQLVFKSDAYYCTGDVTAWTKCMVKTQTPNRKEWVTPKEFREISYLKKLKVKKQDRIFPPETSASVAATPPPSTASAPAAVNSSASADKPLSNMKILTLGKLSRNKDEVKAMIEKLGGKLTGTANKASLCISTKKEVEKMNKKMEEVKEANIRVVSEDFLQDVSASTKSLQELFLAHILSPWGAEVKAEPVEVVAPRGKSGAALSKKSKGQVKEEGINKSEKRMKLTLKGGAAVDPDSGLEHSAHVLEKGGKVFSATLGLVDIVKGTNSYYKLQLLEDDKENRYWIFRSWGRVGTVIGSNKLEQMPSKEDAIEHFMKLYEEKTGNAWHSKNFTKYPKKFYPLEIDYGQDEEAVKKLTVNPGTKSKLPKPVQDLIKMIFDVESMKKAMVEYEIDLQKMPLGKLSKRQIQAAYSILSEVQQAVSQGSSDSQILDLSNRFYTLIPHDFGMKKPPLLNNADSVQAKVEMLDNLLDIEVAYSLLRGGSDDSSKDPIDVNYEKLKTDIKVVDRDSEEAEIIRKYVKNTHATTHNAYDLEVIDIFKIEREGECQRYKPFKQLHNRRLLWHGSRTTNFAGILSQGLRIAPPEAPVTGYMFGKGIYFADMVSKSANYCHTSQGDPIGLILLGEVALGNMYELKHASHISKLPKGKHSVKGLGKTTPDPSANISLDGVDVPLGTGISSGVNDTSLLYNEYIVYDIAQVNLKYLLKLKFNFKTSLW

Row | Compound | Ki [nM]
1 | O=C(NCCN1CCCC1)c1cccc(Cc2n[nH]c(=O)c3c2CCCC3)c1 [Example 52, 3-((4-oxo-3,4,5,6,7,8-hexahydrophthalazin-1-yl)methyl)-N-(2-pyrrolidin-1-ylethyl)benzamide] | 13
2 | CC1CCCN1C(=O)c1cccc(Cc2n[nH]c(=O)c3c2CCCC3)c1 (stereo not shown) [Example 53, 4-(3-((2-methylpyrrolidin-1-yl)carbonyl)benzyl)-5,6,7,8-tetrahydrophthalazin-1(2H)-one] | 10
3 | O=C(NN1CCCCCC1)c1cccc(Cc2n[nH]c(=O)c3c2CCCC3)c1 [Example 54, N-azepan-1-yl-3-((4-oxo-3,4,5,6,7,8-hexahydrophthalazin-1-yl)methyl)benzamide] | 205
4 | O=C(NC1CNC1)c1cccc(Cc2n[nH]c(=O)c3c2CCCC3)c1 [Example 56, N-azetidin-3-yl-3-((4-oxo-3,4,5,6,7,8-hexahydrophthalazin-1-yl)methyl)benzamide] | 5
5 | O=C(NC1CCCNC1)c1cccc(Cc2n[nH]c(=O)c3c2CCCC3)c1 (stereo not shown) [Example 57, 3-((4-oxo-3,4,5,6,7,8-hexahydrophthalazin-1-yl)methyl)-N-piperidin-3-ylbenzamide] | 60
6 | CN(C)c1ccc(NC(=O)c2cccc(Cc3n[nH]c(=O)c4c3CCCC4)c2)cc1 [Example 58, N-(4-(dimethylamino)phenyl)-3-((4-oxo-3,4,5,6,7,8-hexahydrophthalazin-1-yl)methyl)benzamide] | 51
7 | CN1CCN(CCNC(=O)c2cccc(Cc3n[nH]c(=O)c4c3CCCC4)c2)CC1 [Example 59, N-(2-(4-methylpiperazin-1-yl)ethyl)-3-((4-oxo-3,4,5,6,7,8-hexahydrophthalazin-1-yl)methyl)benzamide] | 24
8 | O=C(c1cccc(Cc2n[nH]c(=O)c3c2CCCC3)c1)N1CCN(C(=O)c2ccno2)CC1 [Example 60, 4-(3-((4-(isoxazol-5-ylcarbonyl)piperazin-1-yl)carbonyl)benzyl)-5,6,7,8-tetrahydrophthalazin-1(2H)-one] | 3
9 | O=C(c1cccc(Cc2n[nH]c(=O)c3c2CCCC3)c1)N1CCC(c2ccccc2)CC1 [Example 61, 4-(3-((4-phenylpiperidin-1-yl)carbonyl)benzyl)-5,6,7,8-tetrahydrophthalazin-1(2H)-one] | 6
10 | O=C(NCC1CCCCN1)c1cccc(Cc2n[nH]c(=O)c3c2CCCC3)c1 (stereo not shown) [Example 62, 3-((4-oxo-3,4,5,6,7,8-hexahydrophthalazin-1-yl)methyl)-N-(piperidin-2-ylmethyl)benzamide] | 42
11 | O=C(NCC1CCNCC1)c1cccc(Cc2n[nH]c(=O)c3c2CCCC3)c1 [Example 63, 3-((4-oxo-3,4,5,6,7,8-hexahydrophthalazin-1-yl)methyl)-N-(piperidin-4-ylmethyl)benzamide] | 23
12 | O=C(NCCN1CCCCC1)c1cccc(Cc2n[nH]c(=O)c3c2CCCC3)c1 [Example 64, 3-((4-oxo-3,4,5,6,7,8-hexahydrophthalazin-1-yl)methyl)-N-(2-piperidin-1-ylethyl)benzamide] | 40
13 | CN1CC(NC(=O)c2cccc(Cc3n[nH]c(=O)c4c3CCCC4)c2)C1 [Example 65, N-(1-methylazetidin-3-yl)-3-((4-oxo-3,4,5,6,7,8-hexahydrophthalazin-1-yl)methyl)benzamide] | 82
14 | CNC(=O)c1cc(Cc2n[nH]c(=O)c3c2CCCC3)ccn1 [Example 67, N-methyl-4-((4-oxo-3,4,5,6,7,8-hexahydrophthalazin-1-yl)methyl)pyridine-2-carboxamide] | 50
15 | CS(=O)(=O)c1nccc(Cc2n[nH]c(=O)c3c2CCCC3)n1 [Example 69, 4-((2-(methylsulfonyl)pyrimidin-4-yl)methyl)-5,6,7,8-tetrahydrophthalazin-1(2H)-one] | 40
16 | C[S+]([O-])c1nccc(Cc2n[nH]c(=O)c3c2CCCC3)n1 (stereo not shown) [Example 70, 4-((2-(methylsulfinyl)pyrimidin-4-yl)methyl)-5,6,7,8-tetrahydrophthalazin-1(2H)-one] | 101
17 | CCNC(=O)c1cc(Cc2n[nH]c(=O)c3c2CCCC3)ccn1 [Example 75, N-ethyl-4-((4-oxo-3,4,5,6,7,8-hexahydrophthalazin-1-yl)methyl)pyridine-2-carboxamide] | 56
18 | CC(C)NC(=O)c1cc(Cc2n[nH]c(=O)c3c2CCCC3)ccn1 [Example 76, N-isopropyl-4-((4-oxo-3,4,5,6,7,8-hexahydrophthalazin-1-yl)methyl)pyridine-2-carboxamide] | 473
19 | O=C(NC1CCCCC1)c1cc(Cc2n[nH]c(=O)c3c2CCCC3)ccn1 [Example 77, N-cyclohexyl-4-((4-oxo-3,4,5,6,7,8-hexahydrophthalazin-1-yl)methyl)pyridine-2-carboxamide] | 195
20 | CN(CC1CCCCN1C)C(=O)c1cccc(Cc2n[nH]c(=O)c3c2CCCC3)c1 (stereo not shown) [Example 78, N-methyl-N-((1-methylpiperidin-2-yl)methyl)-3-((4-oxo-3,4,5,6,7,8-hexahydrophthalazin-1-yl)methyl)benzamide] | 165
21 | CN1CCC(CNC(=O)c2cccc(Cc3n[nH]c(=O)c4c3CCCC4)c2)CC1 [Example 79, N-((1-methylpiperidin-4-yl)methyl)-3-((4-oxo-3,4,5,6,7,8-hexahydrophthalazin-1-yl)methyl)benzamide] | 18

Row | Compound | Ki [nM]
22 | CNC(=O)c1cccc(Cc2n[nH]c(=O)c3c2CCCC3)n1 [Example 80, N-methyl-6-((4-oxo-3,4,5,6,7,8-hexahydrophthalazin-1-yl)methyl)pyridine-2-carboxamide] | 47
23 | CCNC(=O)c1cccc(Cc2n[nH]c(=O)c3c2CCCC3)n1 [Example 81, N-ethyl-6-((4-oxo-3,4,5,6,7,8-hexahydrophthalazin-1-yl)methyl)pyridine-2-carboxamide] | 123
24 | CC(C)NC(=O)c1cccc(Cc2n[nH]c(=O)c3c2CCCC3)n1 [Example 82, N-isopropyl-6-((4-oxo-3,4,5,6,7,8-hexahydrophthalazin-1-yl)methyl)pyridine-2-carboxamide] | 691
25 | O=C(NC1CC1)c1cccc(Cc2n[nH]c(=O)c3c2CCCC3)n1 [Example 83, N-cyclopropyl-6-((4-oxo-3,4,5,6,7,8-hexahydrophthalazin-1-yl)methyl)pyridine-2-carboxamide] | 126
26 | O=C(NC1CCCCC1)c1cccc(Cc2n[nH]c(=O)c3c2CCCC3)n1 [Example 84, N-cyclohexyl-6-((4-oxo-3,4,5,6,7,8-hexahydrophthalazin-1-yl)methyl)pyridine-2-carboxamide] | 617
27 | COC(=O)c1ncccc1Cc1n[nH]c(=O)c2c1CCCC2 [Example 85, methyl 3-((4-oxo-3,4,5,6,7,8-hexahydrophthalazin-1-yl)methyl)pyridine-2-carboxylate] | 396
28 | COC(=O)c1ccc(Cc2n[nH]c(=O)c3c2CCCC3)cn1 [Example 86, methyl 5-((4-oxo-3,4,5,6,7,8-hexahydrophthalazin-1-yl)methyl)pyridine-2-carboxylate] | 390
29 | Nc1cccc(Cc2n[nH]c(=O)c3c2CCCC3)c1 [Example 89, 4-(3-aminobenzyl)-5,6,7,8-tetrahydrophthalazin-1(2H)-one] | 111
30 | O=c1[nH]nc(Cc2cccs2)c2c1CCCC2 [Example 91, 4-(thien-2-ylmethyl)-5,6,7,8-tetrahydrophthalazin-1(2H)-one] | 70
31 | COC(=O)c1ccc(Cc2n[nH]c(=O)c3c2CCCC3)s1 [Example 92, methyl 5-((4-oxo-3,4,5,6,7,8-hexahydrophthalazin-1-yl)methyl)thiophene-2-carboxylate] | 167
32 | CNC(=O)c1ccc(Cc2n[nH]c(=O)c3c2CCCC3)cn1 [Example 93, N-methyl-5-((4-oxo-3,4,5,6,7,8-hexahydrophthalazin-1-yl)methyl)pyridine-2-carboxamide] | 840
33 | CCNC(=O)c1ccc(Cc2n[nH]c(=O)c3c2CCCC3)cn1 [Example 94, N-ethyl-5-((4-oxo-3,4,5,6,7,8-hexahydrophthalazin-1-yl)methyl)pyridine-2-carboxamide] | 856
34 | CNC(=O)c1ncccc1Cc1n[nH]c(=O)c2c1CCCC2 [Example 95, N-methyl-3-((4-oxo-3,4,5,6,7,8-hexahydrophthalazin-1-yl)methyl)pyridine-2-carboxamide] | 1260
35 | CCNC(=O)c1ncccc1Cc1n[nH]c(=O)c2c1CCCC2 [Example 96, N-ethyl-3-((4-oxo-3,4,5,6,7,8-hexahydrophthalazin-1-yl)methyl)pyridine-2-carboxamide] | 2610
36 | CN(C)S(=O)(=O)Nc1cccc(Cc2n[nH]c(=O)c3c2CCCC3)c1 [Example 97, N,N-dimethyl-N′-(3-((4-oxo-3,4,5,6,7,8-hexahydrophthalazin-1-yl)methyl)phenyl)sulfamide] | 390
37 | O=C(CCN1CCCCC1)Nc1cccc(Cc2n[nH]c(=O)c3c2CCCC3)c1 [Example 98, N-(3-((4-oxo-3,4,5,6,7,8-hexahydrophthalazin-1-yl)methyl)phenyl)-3-piperidin-1-ylpropanamide] | 286
38 | CCCC(=O)Nc1ccc(Cl)c(Cc2n[nH]c(=O)c3c2CCCC3)c1 [Example 99] | 44
39 | O=C1CCCN1c1cccc(Cc2n[nH]c(=O)c3c2CCCC3)c1 [Example 100, 4-(3-(2-oxopyrrolidin-1-yl)benzyl)-5,6,7,8-tetrahydrophthalazin-1(2H)-one] | 39
40 | O=C1CCN1c1cc(Cc2n[nH]c(=O)c3c2CCCC3)ccn1 [Example 101, 4-((2-(2-oxoazetidin-1-yl)pyridin-4-yl)methyl)-5,6,7,8-tetrahydrophthalazin-1(2H)-one] | 21
41 | O=C1CCCN1c1ccc(Cc2n[nH]c(=O)c3c2CCCC3)cn1 [Example 104, 4-((6-(2-oxopyrrolidin-1-yl)pyridin-3-yl)methyl)-5,6,7,8-tetrahydrophthalazin-1(2H)-one] | 1230

Same assay, conditions: read-out: PARP-1 (Ki); Table 2; A2 is C1-alkyl versus no A2 (bond)

Row | Compound | Ki [nM]
42 | O=C1CCN1c1cc(-c2n[nH]c(=O)c3c2CCCC3)ccc1F | 291

Same assay, conditions: read-out: PARP-1 (Ki); Table 3; H analogs versus para-F analogs

Row | Compound | Ki [nM]
43 | CCN(CC)C(=O)C1CCCN(C(=O)c2cccc(Cc3n[nH]c(=O)c4c3CCCC4)c2)C1 (stereo not shown) | 27

Source: patent publication US9283222B2 (priority 2006, dated 2016)
